Source: patent US9598677B2, “Use of human biliverdin reductase and fragments thereof for the treatment of protein kinase C-delta and ERK related conditions” (University of Rochester, priority 2009, dated 2017)
Values belong to the compound of their own block, whether it stands above or below them. Ends that are not written are not given here. * marks the point of attachment. Myristoyl = CCCCCCCCCCCCCC(=O)*

Assays:
recombinant human PKC-δ = experiment: PKC-δ kinase assay in vitro (p81 filter / autoradiography); assay type: biochemical; details: for phosphorylation of variant peptides as PKC-δ substrates: FIG. 4C; for phosphate incorporated into hBVR-derived peptides by PKC-δ: 10 μM peptide, 30 min at 30° C., FIG. 6C
Experimental: Measurement of PKC-δ activity: In vitro kinase activity assays were performed with active recombinant human PKC-δ kinase (as a GST fusion protein). PKC-δ assay in vitro was performed using 5 ng purified enzyme in a 50 μl assay containing 50 mM HEPES pH 7.4, 10 mM MgCl2, 0.2 mM DTT, sonicated lipid activators (0.5 μg phosphatidylserine and 0.05 μg diacylglycerol) or lipid activators plus PMA (as indicated in appropriate experiments) and PKC-δ substrates. The reaction was started by the addition of 50 μM ATP labeled with 5 μCi [γ-^32P]-ATP. Incubation was performed for 15 min at 30° C., unless otherwise stated. The reaction was terminated on ice, either by the addition of Laemmli buffer followed by SDS-PAGE, transferred to PVDF membrane, and autoradiography, or by the addition of 1 volume 10% phosphoric acid for p81 transfer as described below. For autophosphorylation of PKC-δ 20 μM ATP was used to start the 40-min reaction.
When hBVR or its mutants were tested for their effect on PKC-δ activity, they were pre-incubated for 5 min at room temperature with the PKC prior to substrate addition. The hBVR-derived peptides were used at concentrations indicated in appropriate figures.
When hBVR or its mutants were assayed as the sole substrates for PKC, the incubation conditions were as described above and the incubation was for 40 min at 30° C. unless specified otherwise. The reaction was terminated by the addition of Laemmli buffer, and the reaction products were detected by SDS-PAGE, transfer to PVDF membrane, and autoradiography.
Measurement of PKC-δ activity: PKC-δ assay in vitro was performed using 0.1 ng/μl purified recombinant human PKC-δ kinase with reaction conditions specified by the manufacturer. Effector molecules such as hBVR or peptides were added 5 min prior to substrate. The reaction was started by the addition of [γ-^32P]-ATP (Lerner-Marmarosh et al., “Human Biliverdin Reductase: A Member of the Insulin Receptor Substrate Family with Serine/Threonine/Tyrosine Kinase Activity,” Proc. Natl. Acad. Sci. U.S.A. 102(20):7109-7114 (2005), which is hereby incorporated by reference in its entirety). Reaction products were detected either by gel electrophoresis and autoradiography or by the p81 filter assay. PKC-δ activity on agarose beads was also measured. Cell lysates were immunoprecipitated with anti-PKC-δ antibody followed by protein A/G agarose. The immunoprecipitates were used in kinase reactions containing 50 μM PKC-δ specific peptide substrate as above; incorporation of ^32P was measured by p81 method.

PKC-δ [1] = molecular target: T1, PKC-δ (Homo sapiens, UniProt Q05655); experiment: PMA-induced PKC-δ membrane translocation, confocal microscopy; assay type: cell-based; parameters: inserting the open reading frame of PKC-δ into the plasmid pDsRed2-C1; expressed in transfected cells; host or cells: 293A; details: 10 μM myristoylated peptide, PMA 15 min, FIG. 5E
T1 sequence (Q05655 whole entry, the tested form may be a part): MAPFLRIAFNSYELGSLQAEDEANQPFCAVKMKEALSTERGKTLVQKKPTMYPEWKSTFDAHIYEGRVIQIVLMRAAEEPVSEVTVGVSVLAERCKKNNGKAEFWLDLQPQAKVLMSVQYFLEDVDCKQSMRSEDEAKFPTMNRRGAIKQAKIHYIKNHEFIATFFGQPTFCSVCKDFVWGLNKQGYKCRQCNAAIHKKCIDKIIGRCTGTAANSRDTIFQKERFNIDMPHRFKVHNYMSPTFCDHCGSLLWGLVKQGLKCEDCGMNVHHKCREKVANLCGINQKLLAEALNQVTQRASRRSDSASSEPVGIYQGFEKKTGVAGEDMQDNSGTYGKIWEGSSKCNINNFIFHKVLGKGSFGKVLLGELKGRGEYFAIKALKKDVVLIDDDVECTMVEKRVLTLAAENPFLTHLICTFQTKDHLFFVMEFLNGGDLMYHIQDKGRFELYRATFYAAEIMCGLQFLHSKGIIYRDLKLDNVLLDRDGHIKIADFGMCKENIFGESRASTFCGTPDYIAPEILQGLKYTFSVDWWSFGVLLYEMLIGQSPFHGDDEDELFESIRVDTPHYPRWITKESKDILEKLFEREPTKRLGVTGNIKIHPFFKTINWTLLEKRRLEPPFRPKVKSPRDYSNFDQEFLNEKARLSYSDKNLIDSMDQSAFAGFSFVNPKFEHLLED
Experimental: Confocal microscopy: Experimental protocols were based on those described by Edwards et al., “Carboxyl-Terminal Phosphorylation Regulates the Function and Subcellular Localization of Protein Kinase C betall,” J. Biol. Chem. 274:6461-6468 (1999), which is hereby incorporated by reference in its entirety. 293A cells were grown in a chamber slide system (Nalge-Nunc International Corp., Naperville, Ill.). Cells were transfected with pEGFP-hBVR and/or the plasmid expressing Ds2-Red-PKC-δ fusion protein. After a 24 h starvation period, cells were fixed for 10 min in 4% Para-formaldehyde in PBS and permeabilized with 1% Triton X-100 in PBS. The cells were mounted with Vectashield (Vector Laboratories, Inc. Burlingame, Calif.), containing DAPI to visualize the nuclei. Non-transfected cells were permeabilized as above, treated with 1:150 dilution of polyclonal anti-PKC-δ antibodies, washed, blocked, and then treated with polyclonal anti-hBVR antibodies. The PBS-washed cells were then treated with Rhodamine-red-conjugated donkey anti-rabbit IgG antibodies (Jackson ImmunoResearch, West Grove, Pa.) for 30 min, followed by mounting. A Leica TCS SP (model DMRE) confocal microscope was used (Maines et al., “Human Biliverdin Reductase: A Previously Unknown Activator of Protein Kinase C-βII,” J. Biol. Chem. 282:8110-8122 (2007), which is hereby incorporated by reference in its entirety).

PKC-δ and ERK1/2 = molecular target: T2, PKC-δ and ERK1/2 (Homo sapiens, UniProt P27361+P28482+Q05655); experiment: Co-immunoprecipitation of PKC-δ and ERK1/2 (anti-ERK1/2); assay type: cell-based; details: myristoylated peptide, IGF-1, FIG. 9D
T2 construct: The human PKC-δ open reading frame was amplified by PCR from a human brain cDNA library; expressed in transfected cells; host or cells: HEK293A (PKC-δ transfected; ERK1/2 endogenous)
T2 sequence (Q05655 whole entry): as the sequence (Q05655 whole entry, the tested form may be a part) above
T2 sequence (P27361 2-379 limits assumed): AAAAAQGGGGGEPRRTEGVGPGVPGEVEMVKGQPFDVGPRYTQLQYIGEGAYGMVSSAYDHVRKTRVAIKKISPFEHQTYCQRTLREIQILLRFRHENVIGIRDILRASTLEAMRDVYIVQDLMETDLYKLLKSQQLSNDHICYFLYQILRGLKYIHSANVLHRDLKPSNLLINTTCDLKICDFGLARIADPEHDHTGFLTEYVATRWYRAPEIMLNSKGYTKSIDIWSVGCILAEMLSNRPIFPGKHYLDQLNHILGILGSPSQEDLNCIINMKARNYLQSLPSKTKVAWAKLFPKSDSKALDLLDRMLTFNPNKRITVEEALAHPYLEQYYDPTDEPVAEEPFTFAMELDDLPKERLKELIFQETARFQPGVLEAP
T2 sequence (P28482 2-360 limits assumed): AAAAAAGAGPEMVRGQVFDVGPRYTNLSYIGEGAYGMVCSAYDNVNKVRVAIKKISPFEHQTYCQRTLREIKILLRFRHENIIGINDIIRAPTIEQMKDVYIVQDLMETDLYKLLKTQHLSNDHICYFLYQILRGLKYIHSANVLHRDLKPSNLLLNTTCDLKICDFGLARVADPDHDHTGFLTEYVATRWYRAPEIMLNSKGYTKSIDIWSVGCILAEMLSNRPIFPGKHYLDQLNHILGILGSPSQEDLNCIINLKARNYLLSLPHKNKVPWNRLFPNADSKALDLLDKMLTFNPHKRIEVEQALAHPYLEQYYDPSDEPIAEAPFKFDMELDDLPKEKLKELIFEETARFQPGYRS
Experimental: (§1) Immunoprecipitation was performed on cell lysates prepared as described previously (Lerner-Marmarosh et al., “Regulation of TNF-alpha-Activated PKC-zeta Signaling By the Human Biliverdin Reductase: Identification of Activating and Inhibitory Domains of the Reductase,” FASEB J. 21:3949-3962 (2007), which is hereby incorporated by reference in its entirety). Immunoprecipitates were separated by SDS PAGE, and the proteins blotted to nitrocellulose membrane. The antibodies used for precipitation and for probing the membranes are as described in the specific figure legends.
(§2) Cell Culture, infection, transfection, and co-immunoprecipitation: HEK293A cells were grown and transfected with pcDNA3-HA-hBVR or pcDNA3-PKC-δ plasmids using conditions described elsewhere (Kravets et al., “Biliverdin Reductase, a Novel Regulator for Induction of Activating Transcription Factor-2 and Heme Oxygenase-1,” J. Biol. Chem. 279(19):19916-19923 (2004); Maines et al., “Human Biliverdin Reductase, a Previously Unknown Activator of Protein Kinase C BetaII,” J. Biol. Chem. 282(11):8110-8122 (2007), which are hereby incorporated by reference in their entirety), and overexpression was confirmed by western blotting. […]

hBVR and PKC-δ = molecular target: T3, hBVR and PKC-δ (Homo sapiens, UniProt Q05655); experiment: Co-immunoprecipitation of hBVR and PKC-δ (anti-HA); assay type: cell-based; details: myristoylated peptide 2 h, then IGF-1, FIG. 9B
T3 construct: The human PKC-δ open reading frame was amplified by PCR from a human brain cDNA library; expressed in transfected cells; host or cells: HEK293A
T3 sequence (Q05655 whole entry): as the sequence (Q05655 whole entry, the tested form may be a part) above
Experimental: as §1, §2

PKC-δ [2] = molecular target: T1, PKC-δ; experiment: PKC-δ activity assay in situ in 293A cells; assay type: cell-based; parameters: The human PKC-δ open reading frame was also cloned in the same vectors; expressed in transfected cells; host or cells: HEK 293A; details: 20 μM, added 30 min prior to treatment, FIG. 3C
Experimental: The PKC-δ activity assay in situ was performed by a modification of procedures detailed by Williams and Schrier (Williams et al., Glucose-Induced Protein Kinase C Activity Regulates Arachidonic Acid Release and Eicosanoid Production by Cultured Glomerular Mesangial Cells,” J. Clin. Invest. 92:2889-2896 (1993), which is hereby incorporated by reference in its entirety). Cells were seeded into 48-well plates and transfected with 0.1 μg/well pcDNA3-hBVR. After 24 h, the medium was replaced with a starvation medium (0.1% serum) and incubation continued for another 24 h to synchronize cells. In some wells, PKC inhibitor Rottlerin (20 μM) was added 30 min before addition of PMA (100 nM) for 15 min. In some wells, hBVR-derived peptides were introduced to cells in their myristoylated form. Cells were washed with medium and incubated for 10 min at 30° C. in 50 μl of kinase assay buffer (137 mM NaCl, 5.4 mM KCl, 10 mM MgCl2, 0.3 mM Na2HPO4, 0.4 mM KH2PO4, 25 mM β-glycerophosphate, 5.5 mM D-glucose, 5 mM EGTA, 1 mM CaCl2, 20 mM HEPES (pH 7.2), 50 μg/ml digitonin, 120 μg/ml of PKC-δ specific substrate (ARRKRKGSFFGG; SEQ ID NO: 52) and 100 μM ATP labeled with 10 μCi/ml [γ-^32P]-ATP). The reaction was stopped with the addition of 25 μl of ice-cold 30% (wt/vol) TCA. The TCA-soluble fraction samples were transferred to p81 phospho-cellulose filters. […]

Compound: SFHFKSGSL (Myristoyl-SFHFKSGSL) [hBVR-based peptide aa230-238]
inhibition of phosphorylation of the commercial substrate (recombinant human PKC-δ; 50 μM substrate/10 μM inhibitor, FIG. 5A): clearly differed | PKC-δ translocation to the cell membrane upon PMA (PKC-δ [1]): did not significantly affect

Compound: GLKRNRYLAFHFK (BVR peptide) [aa222-234 peptide with target serine replaced by alanine]
phosphorylation of variant peptides as PKC-δ substrates (recombinant human PKC-δ): not a substrate

Compound: hBVR aa18-23: hBVR-derived peptide containing S21 in consensus PKC phosphorylation motif (RAGSVR; UniProt P53004 18-23, looked up, fragment)
phosphate incorporated into hBVR-derived peptides by PKC-δ (recombinant human PKC-δ): several fold increase

Compound: CC(=O)c1c(O)c(C)c(O)c(Cc2c(O)c3c(c(C(=O)/C=C/c4ccccc4)c2O)OC(C)(C)C=C3)c1O [Rottlerin, reference compound]
PKC-δ activation by PMA and hBVR in cells overexpressing the kinase (PKC-δ [2]): significant reduction

Compound: aa290-296: hBVR-derived peptide containing S294 in consensus PKC phosphorylation motif (KYCCSRK; UniProt P53004 290-296, looked up, fragment)
phosphate incorporated into hBVR-derived peptides by PKC-δ (recombinant human PKC-δ): several fold increase

Other lines, results leading:

phosphorylation of variant peptides as PKC-δ substrates (recombinant human PKC-δ): not a substrate
Compound: GLAANAYLSFHFK (BVR peptide) [second variant of the aa222-234 peptide, upstream lysine and arginine residues replaced by alanine]

phosphorylation of variant peptides as PKC-δ substrates (recombinant human PKC-δ): markedly decreased phosphorylation
Compound: GLKRNRYLAFHFKSGSL (BVR peptide) [alanine-mutant peptide (hBVR aa222-238), longer alanine-mutant peptide that includes two additional serines]

association of PKC-δ and ERK1/2, effect of peptide (PKC-δ and ERK1/2): failed to block | association between hBVR and PKC-δ, effect of peptide (hBVR and PKC-δ): slight decrease in binding
Compound: KKRILHCLGLA (BVR peptide) [hBVR-derived D-box peptide]

association of PKC-δ and ERK1/2, effect of peptide (PKC-δ and ERK1/2): inhibitory | association between hBVR and PKC-δ, effect of peptide (hBVR and PKC-δ): completely blocked
Compound: FGFPAFSG (BVR peptide) [hBVR-derived hydrophobic (C-box) peptide]
